Results as given in article PMC9130746, “In Vitro Activity of Peptide Antibiotics in Combination With Other Antimicrobials on Extensively Drug-Resistant Acinetobacter baumannii in the Planktonic and Biofilm Cell” (Frontiers in Pharmacology, 2022).
In brackets after ≈: the same amount, converted by molar mass. Where two headings read alike, the source gives them in different places.

Columns and labels:
Assay type in all cases: cell-based, Acinetobacter baumannii
[1] = tested on: extensively drug-resistant A. baumannii clinical isolates (planktonic cell); experiment: microbe, parasite or virus in culture; conditions: for MIC: planktonic, broth microdilution, CAMHB, 37°C 16–20 h, OD600
Excerpt: (§1) Nine XDRAB strains were isolated from clinical specimens such as the septum, urine, or respiratory lavage fluid of patients from the respiratory intensive care unit, intensive care unit, the cardiothoracic surgery department, and the neurology department at the First Affiliated Hospital of Chengdu Medical College during the period from 2018 to 2020 (Chengdu, Sichuan, China). In addition, A. baumannii ATCC 19606, Staphylococcus aureus ATCC 29213, and Escherichia coli ATCC 25922 were used as quality control strains in antimicrobial susceptibility testing (AST) and obtained from the American Type Culture Collection (ATCC, Manassas, VA, United States).
The minimum inhibitory concentrations (MICs) were determined by the broth microdilution method for the antibacterial agents and peptide antibiotics for A. baumannii based on the guidelines provided by the Clinical and Laboratory Standards Institute (CLSI) ([Humphries et al., 2021]). Briefly, bacterial cells were inoculated in Luria–Bertani agar medium at 37°C for 16–20 h, and then resuspended in saline (0.9% sodium chloride) to adjust the bacterial content to reach the 0.5 McFarland turbidity standard, followed by a 20-fold dilution. Antimicrobial solutions were prepared according to the CLSI ([Humphries et al., 2021]). Finally, 180 μl CAMHB, 10 µl corresponding antimicrobials, and 10 µl bacterial resuspension were added into 96-well plate (NEST TC, 701001, www.cell-nest.com). The value of OD600 was measured after incubating at 37°C for 16–20 h.

[2] = tested on: extensively drug-resistant A. baumannii clinical isolates (biofilm cell); conditions: for MBIC: 24 h biofilm in TSB, then MH broth with drug 16–20 h 37°C, OD600
Excerpt: as §1
The minimum biofilm inhibitory concentrations (MBICs) were detected using a previous study protocol ([Kart et al., 2021]) for the antibacterial agents and peptide antibiotics for A. baumannii in the biofilm cell. First, bacterial cells were inoculated in Luria–Bertani agar medium at 37°C for 16–20 h. Next, the bacterial monoclones were resuspended in saline (0.9% sodium chloride) to adjust the bacterial content to reach the 0.5 McFarland turbidity standard. Then, 190 µl TSB and 10 µl bacterial resuspension were mixed in a 96-well plate. After incubating at 37°C for 24 h, the medium was aspirated, and 200 µl PBS was added to wash three times. Finally, 190 μl MH broth medium and 10 µl corresponding antibiotics were added into 96-well plate (NEST TC, 701001, www.cell-nest.com). The optical density was measured at OD600 after incubating for 16–20 h at 37°C.

[3] = tested on: extensively drug-resistant A. baumannii isolates (biofilm cell); experiment: Checkerboard synergy study in the biofilm cell (FBIC); conditions: in combination with polymyxins
Experimental: The checkerboard method, the fractional inhibitory concentration index (FICI), and the fractional biofilm inhibitory concentration index (FBIC) evaluated the synergistic effects of five peptide antibiotics combined with one of the five antimicrobials in the planktonic and biofilm cells among the nine XDRAB isolates. The planktonic cells were investigated by adding 170 µl of MHB and 10 µl of bacterial suspension (1.5 × 10^8 CFU/ml) into the 96 well plates. It was followed by adding 10 µl of serially diluted peptide antibiotics along the x-axis and antimicrobials along the y-axis. The biofilm cells were studied by cultivating the bacteria to form the biofilm into a 96-well plate (NEST TC, 701001, www.cell-nest.com) and washed with 200 µl of PBS three times. The following steps were consistent with the planktonic study. The value of OD600 was measured after incubating at 37°C for 20 h. The FICI and FBIC were evaluated as follows: Synergy between the two drugs was defined as either a FICI or an FBIC of ≤0.5, >0.5–1 for additivity, >1–2 for indifference, and >2 for antagonism ([Kim et al., 2015]; [Peng et al., 2020]; [Lin et al., 2021]).

[4] = after XDRAB biofilm formation, nine isolates

Row | Compound | MIC ([1]; isolate AB1) | MIC ([1]; isolate AB2) | MIC ([1]; isolate AB3) | MIC ([1]; isolate AB4) | MIC ([1]; isolate AB5) | MIC ([1]; isolate AB6) | MIC ([1]; isolate AB7) | MIC ([1]; isolate AB8) | MIC ([1]; isolate AB9) | MBIC ([2]; isolate AB1) | MBIC ([2]; isolate AB2) | MBIC ([2]; isolate AB3) | MBIC ([2]; isolate AB4) | MBIC ([2]; isolate AB5) | MBIC ([2]; isolate AB6) | MBIC ([2]; isolate AB7) | MBIC ([2]; isolate AB8) | MBIC ([2]; isolate AB9) | further results
1 | CN(C)c1cc(NC(=O)CNC(C)(C)C)c(O)c2c1C[C@H]1C[C@H]3[C@H](N(C)C)C(O)=C(C(N)=O)C(=O)[C@@]3(O)C(O)=C1C2=O [Tigecycline, tigecycline] |  |  |  |  |  |  |  |  |  |  |  |  |  |  |  |  |  |  | MIC ([1]; Acinetobacter baumannii, isolate AB1, read-out: MIC): 1 µg/mL (≈ 1.71 µM); MIC ([1]; Acinetobacter baumannii, isolate AB2, read-out: MIC): 1 µg/mL (≈ 1.71 µM); MIC ([1]; Acinetobacter baumannii, isolate AB3, read-out: MIC): 1 µg/mL (≈ 1.71 µM); MIC ([1]; Acinetobacter baumannii, isolate AB4, read-out: MIC): 1 µg/mL (≈ 1.71 µM); MIC ([1]; Acinetobacter baumannii, isolate AB5, read-out: MIC): 1 µg/mL (≈ 1.71 µM); MIC ([1]; Acinetobacter baumannii, isolate AB6, read-out: MIC): 1 µg/mL (≈ 1.71 µM); MIC ([1]; Acinetobacter baumannii, isolate AB7, read-out: MIC): 1 µg/mL (≈ 1.71 µM); MIC ([1]; Acinetobacter baumannii, isolate AB8, read-out: MIC): 1 µg/mL (≈ 1.71 µM); MIC ([1]; Acinetobacter baumannii, isolate AB9, read-out: MIC): 0.5 µg/mL (≈ 0.854 µM); sensitivity rate ([1]; planktonic cell, nine isolates): 100%; intermediate rate [2, 4]: 67%; resistance rate [2, 4]: 22%; sensitivity rate [2, 4]: 11%
2 | CN[C@H](CC(C)C)C(=O)N[C@H]1C(=O)N[C@@H](CC(N)=O)C(=O)N[C@H]2C(=O)N[C@H]3C(=O)N[C@H](C(=O)N[C@H](C(=O)O)c4cc(O)cc(O)c4-c4cc3ccc4O)[C@H](O)c3ccc(c(Cl)c3)Oc3cc2cc(c3O[C@@H]2O[C@H](CO)[C@@H](O)[C@H](O)[C@H]2O[C@H]2C[C@](C)(N)[C@H](O)[C@H](C)O2)Oc2ccc(cc2Cl)[C@H]1O [Vancomycin, vancomycin] | 64 µg/mL (≈ 44.2 µM) | 64 µg/mL (≈ 44.2 µM) | 128 µg/mL (≈ 88.3 µM) | 64 µg/mL (≈ 44.2 µM) | 128 µg/mL (≈ 88.3 µM) | 128 µg/mL (≈ 88.3 µM) | 128 µg/mL (≈ 88.3 µM) | 64 µg/mL (≈ 44.2 µM) | 128 µg/mL (≈ 88.3 µM) | 256 µg/mL | 128 µg/mL | 128 µg/mL | 128 µg/mL | 256 µg/mL | 256 µg/mL | 128 µg/mL | 128 µg/mL | 128 µg/mL | 
3 | CC[C@H]1OC(=O)[C@H](C)[C@@H](O[C@H]2C[C@@](C)(OC)[C@@H](O)[C@H](C)O2)[C@H](C)[C@@H](O[C@@H]2O[C@H](C)C[C@H](N(C)C)[C@H]2O)[C@](C)(O)C[C@@H](C)CN(C)[C@H](C)[C@@H](O)[C@]1(C)O [azithromycin] |  |  |  |  |  |  |  |  |  |  |  |  |  |  |  |  |  |  | MBIC when combined with polymyxins [3]: 128 µg/mL
4 | polymyxin E | 2 µg/mL | 1 µg/mL | 1 µg/mL | 2 µg/mL | 2 µg/mL | 1 µg/mL | 2 µg/mL | 2 µg/mL | 2 µg/mL | 16 µg/mL | 8 µg/mL | 4 µg/mL | 4 µg/mL | 8 µg/mL | 8 µg/mL | 8 µg/mL | 4 µg/mL | 8 µg/mL | 
5 | teicoplanin | 64 µg/mL | 64 µg/mL | 32 µg/mL | 32 µg/mL | 64 µg/mL | 32 µg/mL | 128 µg/mL | 32 µg/mL | 64 µg/mL |  | 64 µg/mL | 64 µg/mL |  |  | 64 µg/mL |  |  | 64 µg/mL | 
